Measurements published in US9498483B2, “2,3,5-trisubstituted thiophene compounds and uses thereof” (priority 2010, dated 2016).

Tests used:
[1] = tested on: HCV replicon I389luc-ubi-neo/NS3-3′/ET in ET (Huh-lucubineo-ET) cells; experiment: Replicon assay (Biological Example 2), luciferase readout; assay type: cell-based; details: Hepatitis C virus
Outline: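 EC50 values come from Hill fits of % inhibition of replicon-driven firefly luciferase, relative to no-compound wells. Compounds were serially diluted (10 points, 3-fold, 0.1 nM–50 μM final, 0.5% DMSO) onto ET replicon cells and read after 48 h.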

HCV polymerase = molecular target: T1, HCV polymerase (Hepatitis C virus genotype 1b, UniProt Q9WMX2); experiment: Polymerase assay of Biological Example 1 (IC50 values of Table 3); assay type: biochemical; details: IC50 values of Table 3, polymerase assay of Biological Example 1; read-out: NS5B-enzyme3
T1 construct: (His)6 (C); made in house; host or cells: XL-1 cells (E. coli, by own knowledge)

[2] = ET cells, luciferase activity 48 hours after compound

SMILES	IC50 ([1]; between 100 nM and 5.0 uM) [µM]	IC50 (HCV polymerase) [µM]	IC50 [1, 2] [µM]
Cc1ccc(-c2cc(N3C(=O)C(C)(O)CCC3C3CCCCC3)c(C(=O)O)s2)cc1 (stereo not shown) [Compound 324, 3-(6-Cyclohexyl-3-hydroxy-3-methyl-2-oxo-piperidin-1-yl)-5-p-tolyl-thiophene-2-carboxylic acid]	0.1 to 5	0.085	
CC(C)(C)C#Cc1cc(N2C(=O)CN(S(=O)(=O)c3ccc(F)cc3F)C[C@H]2C2CCCCC2)c(C(=O)O)s1 [Compound 281, 3-[(R)-2-Cyclohexyl-4-(2,4-difluoro-benzenesulfonyl)-6-oxo-piperazin-1-yl]-5-(3,3-dimethyl-but-1-ynyl)-thiophene-2-carboxylic acid]		0.003	≤ 0.1
CN(C)[C@@H]1CCN(c2ccc(S(=O)(=O)N3CC(=O)N(c4cc(-c5ccccc5)sc4C(=O)O)[C@H](C4CCCCC4)C3)cn2)C1 [Compound 163, 3-{(R)-2-Cyclohexyl-4-[6-((R)-3-dimethylamino-pyrrolidin-1-yl)-pyridine-3-sulfonyl]-6-oxo-piperazin-1-yl}-5-phenyl-thiophene-2-carboxylic acid]		0.001	≤ 0.1
CC(C)(C)OC(=O)NCC1CCN(c2ccc(S(=O)(=O)N3CC(=O)N(c4cc(-c5ccccc5)sc4C(=O)O)[C@H](C4CCCCC4)C3)cn2)CC1 [Compound 149, 3-{(R)-4-[4-(tert-Butoxycarbonyl-amino-methyl)-3,4,5,6-tetrahydro-2H-[1,2′]bipyridinyl-5′-sulfonyl]-2-cyclohexyl-6-oxo-piperazin-1-yl}-5-phenyl-thiophene-2-carboxylic acid]		0.003	≤ 0.1
COc1ccc(-c2cc(N3C(=O)CCCC3C3CCCCC3)c(C(=O)O)s2)cc1 (stereo not shown) [Compound 114, 3-(2-Cyclohexyl-6-oxo-piperidin-1-yl)-5-(4-methoxy-phenyl)-thiophene-2-carboxylic acid]	0.1 to 5	0.09	
COCCN(CCOC)c1ccc(S(=O)(=O)N2CC(=O)N(c3cc(-c4ccccc4)sc3C(=O)O)C(C3CCCCC3)C2)cn1 (stereo not shown) [Compound 80, 3-(4-{6-[Bis-(2-methoxy-ethyl)-amino]-pyridine-3-sulfonyl}-2-cyclohexyl-6-oxo-piperazin-1-yl)-5-phenyl-thiophene-2-carboxylic acid]		0.006	≤ 0.1
CC(C)(C)C#Cc1cc(N2C(=O)CCC[C@@H]2C2CCCCC2)c(C(=O)O)s1 [Compound 34, 3-((R)-2-Cyclohexyl-6-oxo-piperidin-1-yl)-5-(3,3-dimethyl-but-1-ynyl)-thiophene-2-carboxylic acid]		1.05	≥ 5
O=C(O)c1sc(-c2ccccc2)cc1N1C(=O)CN(S(=O)(=O)c2ccc(N3CCN[C@H](CO)C3)nc2)C[C@H]1C1CCCCC1 [Compound 139, 3-{(R)-2-Cyclohexyl-4-[6-((S)-3-hydroxymethyl-piperazin-1-yl)-pyridine-3-sulfonyl]-6-oxo-piperazin-1-yl}-5-phenyl-thiophene-2-carboxylic acid]	0.1 to 5	0.001	
CC1(C)CCN(c2ccc(S(=O)(=O)N3CC(=O)N(c4cc(-c5ccc(Cl)cc5)sc4C(=O)O)[C@H](C4CCCCC4)C3)cn2)C1 [Compound 292, 5-(4-Chloro-phenyl)-3-{(R)-2-cyclohexyl-4-[6-(3,3-dimethyl-pyrrolidin-1-yl)-pyridine-3-sulfonyl]-6-oxo-piperazin-1-yl}-thiophene-2-carboxylic acid]		0.0023	≤ 0.1
O=C(O)c1sc(-c2ccccc2)cc1N1C(=O)CN(S(=O)(=O)c2ccc(C3=CCCC3)nc2)C[C@H]1C1CCCCC1 [Compound 215, 3-[(R)-2-Cyclohexyl-4-(6-cyclopent-1-enyl-pyridine-3-sulfonyl)-6-oxo-piperazin-1-yl]-5-phenyl-thiophene-2-carboxylic acid]	0.1 to 5	0.002	
CC(C)(C)C#Cc1cc(N2C(=O)[C@@H](O)CC[C@H]2C2CCCCC2)c(C(=O)O)s1 [Compound 322]		0.006	≤ 0.1
Cc1ccc(-c2cc(N3C(=O)CN(S(=O)(=O)c4ccc(N5CCCOCC5)nc4)C[C@H]3C3CCCCC3)c(C(=O)O)s2)cc1 [Compound 188, 3-[(R)-2-Cyclohexyl-4-(6-[1,4]oxazepan-4-yl-pyridine-3-sulfonyl)-6-oxo-piperazin-1-yl]-5-p-tolyl-thiophene-2-carboxylic acid]		0.001	≤ 0.1
CCCN(CCC)c1ccc(S(=O)(=O)N2CC(=O)N(c3cc(-c4ccccc4)sc3C(=O)O)C(C3CCCCC3)C2)cn1 (stereo not shown) [Compound 77, 3-[2-Cyclohexyl-4-(6-dipropylamino-pyridine-3-sulfonyl)-6-oxo-piperazin-1-yl]-5-phenyl-thiophene-2-carboxylic acid]		0.003	≤ 0.1
Cc1cc(S(=O)(=O)N2CC(=O)N(c3cc(-c4ccccc4)sc3C(=O)O)[C@H](C3CCCCC3)C2)cnc1N1CCC[C@H]1C [Compound 173, 3-{(R)-2-Cyclohexyl-4-[5-methyl-6-((R)-2-methyl-pyrrolidin-1-yl)-pyridine-3-sulfonyl]-6-oxo-piperazin-1-yl}-5-phenyl-thiophene-2-carboxylic acid]		0.001	≤ 0.1
CC(C)(C)C#Cc1cc(N2C(=O)CN(S(=O)(=O)c3ccc(F)cc3)C[C@H]2C2CCCCC2)c(C(=O)O)s1 [Compound 243, 3-[(R)-2-Cyclohexyl-4-(4-fluoro-benzenesulfonyl)-6-oxo-piperazin-1-yl]-5-(3,3-dimethyl-but-1-ynyl)-thiophene-2-carboxylic acid]		0.002	≤ 0.1
O=C(O)c1sc(-c2ccccc2)cc1N1C(=O)CN(S(=O)(=O)c2ccc(Oc3ccccc3)cc2)CC1C1CCCCC1 (stereo not shown) [Compound 51, 3-[2-Cyclohexyl-6-oxo-4-(4-phenoxy-benzenesulfonyl)-piperazin-1-yl]-5-phenyl-thiophene-2-carboxylic acid]	0.1 to 5	0.011	
Cn1ccc(S(=O)(=O)N2CC(=O)N(c3cc(C#CC(C)(C)C)sc3C(=O)O)[C@H](C3CCCCC3)C2)n1 [Compound 193, 3-[(R)-2-Cyclohexyl-4-(1-methyl-1H-pyrazole-3-sulfonyl)-6-oxo-piperazin-1-yl]-5-(3,3-dimethyl-but-1-ynyl)-thiophene-2-carboxylic acid]		0.001	≤ 0.1
C[C@@H]1CN(c2ccc(S(=O)(=O)N3CC(=O)N(c4cc(-c5ccc(F)cc5)sc4C(=O)O)[C@H](C4CCCCC4)C3)cn2)C[C@H](C)O1 [Compound 278, 3-{(R)-2-Cyclohexyl-4-[6-((2R,6S)-2,6-dimethyl-morpholin-4-yl)-pyridine-3-sulfonyl]-6-oxo-piperazin-1-yl}-5-(4-fluoro-phenyl)-thiophene-2-carboxylic acid]		0.001	≤ 0.1
O=C(O)c1sc(-c2ccccc2)cc1N1C(=O)CN(Cc2ccc(N3CCCC3=O)cc2)C[C@H]1C1CCCCC1 [Compound 262, 3-{(R)-2-Cyclohexyl-6-oxo-4-[4-(2-oxo-pyrrolidin-1-yl)-benzyl]-piperazin-1-yl}-5-phenyl-thiophene-2-carboxylic acid]	0.1 to 5	0.025	
CN(C)c1ccc(-c2ccc(S(=O)(=O)N3CC(=O)N(c4cc(-c5ccccc5)sc4C(=O)O)[C@H](C4CCCCC4)C3)cn2)cc1 [Compound 203, 3-{(R)-2-Cyclohexyl-4-[6-(4-dimethylamino-phenyl)-pyridine-3-sulfonyl]-6-oxo-piperazin-1-yl}-5-phenyl-thiophene-2-carboxylic acid]		0.001	≤ 0.1
CC1(C)OC[C@@H](C2CCCCC2)N(c2cc(-c3ccc(Cl)cc3)sc2C(=O)O)C1=O [Compound 315, 5-(4-Chloro-phenyl)-3-((R)-5-cyclohexyl-2,2-dimethyl-3-oxo-morpholin-4-yl)-thiophene-2-carboxylic acid]		0.006	≤ 0.1
CC(C)(C)c1ccc(-c2cc(N3C(=O)CCCC3C3CCCCC3)c(C(=O)O)s2)cc1 (stereo not shown) [Compound 113, 5-(4-tert-Butyl-phenyl)-3-(2-cyclohexyl-6-oxo-piperidin-1-yl)-thiophene-2-carboxylic acid]	0.1 to 5	0.044	
COc1ccc(S(=O)(=O)N2CC(=O)N(c3cc(-c4ccccc4)sc3C(=O)O)C(C3CCCCC3)C2)cc1C(=O)O (stereo not shown) [Compound 29, 3-[4-(3-Carboxy-4-methoxy-benzenesulfonyl)-2-cyclohexyl-6-oxo-piperazin-1-yl]-5-phenyl-thiophene-2-carboxylic acid]	0.1 to 5	0.001	
O=C(O)c1sc(-c2ccc(F)cc2)cc1N1C(=O)CN(S(=O)(=O)c2ccc(N3CCCC3)nc2)C[C@H]1C1CCCCC1 [Compound 232, 3-[(R)-2-Cyclohexyl-6-oxo-4-(6-pyrrolidin-1-yl-pyridine-3-sulfonyl)-piperazin-1-yl]-5-(4-fluoro-phenyl)-thiophene-2-carboxylic acid]		0.001	≤ 0.1
N[C@@H]1CCN(c2ccc(S(=O)(=O)N3CC(=O)N(c4cc(-c5ccccc5)sc4C(=O)O)[C@H](C4CCCCC4)C3)cn2)C1 [Compound 141, 3-{(R)-4-[6-((R)-3-Amino-pyrrolidin-1-yl)-pyridine-3-sulfonyl]-2-cyclohexyl-6-oxo-piperazin-1-yl}-5-phenyl-thiophene-2-carboxylic acid]		0.002	≤ 0.1
CCN(CC)c1ccc(S(=O)(=O)N2CC(=O)N(c3cc(-c4ccccc4)sc3C(=O)O)[C@H](C3CCCCC3)C2)cn1 [Compound 177, 3-[(R)-2-Cyclohexyl-4-(6-diethylamino-pyridine-3-sulfonyl)-6-oxo-piperazin-1-yl]-5-phenyl-thiophene-2-carboxylic acid]		0.002	≤ 0.1
